Experiments:
Assay in all cases: relative viability (nuclei count vs DMSO), 5 days (fraction); higher = more cells survive
Decitabine + Linsitinib = compound: Nc1ncn([C@H]2C[C@H](O)[C@@H](CO)O2)c(=O)n1 [Decitabine] + C[C@]1(O)C[C@@H](c2nc(-c3ccc4ccc(-c5ccccc5)nc4c3)c3c(N)nccn32)C1 [Linsitinib] (partner 1 µM)
Summary of the method: (§1)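 Values are medians from duplicate plates. Each reflects relative viability, defined as the nuclei count of treated wells over that of vehicle wells. Lung cancer cell lines in 1536-well plates were pin-tool dosed one day after seeding with one drug alone or with a fixed anchor-drug dose plus five library-drug doses (not always all listed) in √10 steps, then fixed, stained and imaged at 4× after 5 days.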

Cediranib + AZD7762 = compound: COc1cc2c(Oc3ccc4[nH]c(C)cc4c3F)ncnc2cc1OCCCN1CCCC1 [Cediranib] + NC(=O)Nc1cc(-c2cccc(F)c2)sc1C(=O)N[C@H]1CCCNC1 [AZD7762] (partner 0.2 µM)
Summary of the method: as §1

[1] = compound: O=C(C[C@H]1NCCC[C@@H]1O)Cn1cnc2cc(Br)c(Cl)cc2c1=O (racemic) [Halofuginone] + CCNC(=O)c1noc(-c2cc(C(C)C)c(O)cc2O)c1-c1ccc(CN2CCOCC2)cc1 [Luminespib] (partner 0.01 µM)
Summary of the method: as §1

Cediranib + Bortezomib = compound: COc1cc2c(Oc3ccc4[nH]c(C)cc4c3F)ncnc2cc1OCCCN1CCCC1 [Cediranib] + CC(C)C[C@H](NC(=O)[C@H](Cc1ccccc1)NC(=O)c1cnccn1)B(O)O [Bortezomib] (partner 0.002 µM)
Summary of the method: as §1

| Cell Line | relative viability (Decitabine + Linsitinib; first compound 0.04 µM) | relative viability (Decitabine + Linsitinib; first compound 0.1265 µM) | relative viability (Decitabine + Linsitinib; first compound 0.4 µM) | relative viability (Decitabine + Linsitinib; first compound 1.265 µM) | relative viability (Decitabine + Linsitinib; first compound 4 µM) | relative viability (Cediranib + AZD7762; first compound 0.04 µM) | relative viability (Cediranib + AZD7762; first compound 0.4 µM) | relative viability (Cediranib + AZD7762; first compound 1.265 µM) | relative viability (Cediranib + AZD7762; first compound 4 µM) | relative viability ([1]; first compound 0.001 µM) | relative viability ([1]; first compound 0.003162 µM) | relative viability ([1]; first compound 0.01 µM) | relative viability ([1]; first compound 0.03162 µM) | relative viability ([1]; first compound 0.1 µM) | relative viability (Cediranib + Bortezomib; first compound 0.04 µM) | relative viability (Cediranib + Bortezomib; first compound 0.1265 µM) | relative viability (Cediranib + Bortezomib; first compound 0.4 µM) | relative viability (Cediranib + Bortezomib; first compound 1.265 µM) | relative viability (Cediranib + Bortezomib; first compound 4 µM) | relative viability (Cediranib + AZD7762; first compound 0.1265 µM) |
| --- | --- | --- | --- | --- | --- | --- | --- | --- | --- | --- | --- | --- | --- | --- | --- | --- | --- | --- | --- | --- |
| NCI-H3122 | 1.01 | 1.01 | 0.941 | 0.788 | 0.711 | 1.05 | 0.95 | 0.969 | 1.07 | 0.0978 | 0.0825 | 0.0899 | 0.0925 | 0.148 | 0.996 | 0.967 | 1.01 | 1.06 | 1 | – |
| PC-3 [JPC-3] | – | 0.8 | 0.676 | 0.64 | 0.607 | 0.758 | 0.769 | 0.749 | 0.783 | 0.705 | 0.714 | 0.626 | 0.823 | 0.661 | 0.844 | 0.829 | 0.844 | 0.924 | 0.809 | – |
| PC-14 | – | 0.784 | 0.268 | 0.283 | 0.23 | 0.247 | 0.355 | 0.262 | 0.344 | 0.152 | 0.161 | 0.183 | 0.184 | 0.104 | 0.889 | 0.831 | 0.734 | 0.878 | 0.902 | 0.377 |
| RERF-LC-KJ | 0.836 | 0.763 | 0.239 | 0.677 | 0.637 | 0.92 | 0.881 | 0.725 | 0.923 | 1.47 | 1.27 | 1.22 | 1.25 | 0.887 | 1.09 | – | 1.04 | 1.11 | 1.17 | 0.411 |
